This note sets out measurements from ChEMBL document CHEMBL5352446, “Synthesis and biological evaluation of a novel c-Myc inhibitor against colorectal cancer via blocking c-Myc/Max heterodimerization and disturbing its DNA binding” (Eur J Med Chem, 2022).

A word on the IC50: it is the concentration needed to halve the response being measured.

One test deals with HCT-8. Nature of the test: Antiproliferative activity against human HCT-8 cells incubated for 72 hrs by MTT assay. It is filed as functional, cell-based. To be noted: HCT-8, 72 h. Background: Formazan colour is commonly taken as a measure of viable cells.
The next test has as its system HCT-15. Nature of the test: Antiproliferative activity against human HCT-15 cells incubated for 72 hrs by MTT assay. It is filed as functional, cell-based. Conditions: HCT-15, 72 h.
Another test has as its system HT-29. Kind of test: cells. To be noted: Homo sapiens, HT-29, 72 h.
In another test the test system is HCT-116. Nature of the test: cells. To be noted: Homo sapiens, HCT-116, 72 h.

The structures appear in SMILES notation.

Description for HCT-116: Antiproliferative activity against human HCT-116 cells incubated for 72 hrs by MTT assay
Description for HT-29: Antiproliferative activity against human HT-29 cells incubated for 72 hrs by MTT assay

On to `COc1cc(Oc2ccc(-c3ccc(C(F)(F)F)cc3)cc2)cc(OC)c1CNCCc1ccc(C(F)(F)F)cc1`, for which the IC50 in the test with HCT-8 was 8.76 µM; in the test with HCT-15 it was 4.89 µM; with HT-29, 2510 nM; in the test with HCT-116, 4.7 µM.

`COc1cc(Oc2ccc(Nc3ccc(-c4ccccc4)cc3)cc2)cc(OC)c1CNCCc1ccc(C(F)(F)F)cc1`: the IC50 was 5.88 µM in the test with HCT-8, 3.41 µM in the test with HCT-15, 1700 nM in the test on HT-29 and 3.85 µM in the test on HCT-116.

As to `COc1cc(Oc2ccc(Nc3ccccc3)cc2)cc(OC)c1CNCCc1ccc(N)cc1`, the IC50 with HCT-8 is 6.21 µM; in the test with HCT-15 it was 5.65 µM; in the test on HT-29, 2650 nM; in the test on HCT-116 it was 2.87 µM.

For the compound `COc1cc(Oc2ccc(Nc3ccc(SC)cc3)cc2)cc(OC)c1CNCCc1ccc(C(F)(F)F)cc1`, the IC50 came out at 8.36 µM in the test with HCT-8, 2.13 µM in the test with HCT-15, 1720 nM with HT-29 and 3.79 µM in the test on HCT-116.

As to `COc1cc(Oc2ccc(Nc3ccccc3)cc2)cc(OC)c1CNCCc1ccc(Cl)cc1`, the IC50 in the test with HCT-8 amounted to 6.13 µM; in the test on HCT-15, 6.64 µM; in the test with HT-29 it was 2440 nM; in the test with HCT-116, 4.98 µM.

For the compound `COc1cc(Oc2ccc(-c3ccc(F)cc3)cc2)cc(OC)c1CNCCc1ccc(C(F)(F)F)cc1`, the IC50 in the test on HCT-8 turned out to be 7.89 µM; in the test with HCT-15 it was 4.23 µM; with HT-29 it was 1950 nM; in the test on HCT-116 it was 3.77 µM.

In the case of `COc1cc(Oc2ccc(Nc3ccc(Br)cc3)cc2)cc(OC)c1CNCCc1ccc(C(F)(F)F)cc1`, the IC50 is 6.98 µM with HCT-8, 3.85 µM with HCT-15, 1310 nM with HT-29 and 3.54 µM with HCT-116.

Regarding `COc1ccc(Nc2ccc(Oc3cc(OC)c(CNCCc4ccc(C(F)(F)F)cc4)c(OC)c3)cc2)cc1`, the IC50 was determined as 4.22 µM in the test on HCT-8, 6.37 µM in the test with HCT-15, 1410 nM in the test with HT-29 and 1.91 µM in the test with HCT-116.

On to `COc1cc(Oc2ccc(Nc3ccc(Cl)cc3)cc2)cc(OC)c1CNCCc1ccc(C(F)(F)F)cc1`, for which the IC50 in the test with HCT-8 stood at 4.1 µM; in the test with HCT-15, 5.31 µM; in the test on HT-29, 1290 nM; in the test with HCT-116, 3.53 µM.

On to `CCOc1ccc(Nc2ccc(Oc3cc(OC)c(CNCCc4ccc(C(F)(F)F)cc4)c(OC)c3)cc2)cc1`, for which the IC50 in the test with HCT-8 turned out to be 5.32 µM; in the test with HCT-15, 5.3 µM; in the test on HT-29, 860 nM; in the test on HCT-116, 3.08 µM.

Turning to `COc1cc(Oc2ccc(Nc3ccccc3)cc2)cc(OC)c1CNCCc1cccs1`, the IC50 came to 10.8 µM with HCT-8, 7.56 µM in the test with HCT-15, 2650 nM in the test with HT-29 and 3.85 µM with HCT-116.

For the compound `COc1cc(Oc2ccc(Nc3ccccc3)cc2)cc(OC)c1CNCCc1ccc(F)cc1`, the IC50 with HCT-8 is 6.32 µM; with HCT-15, 5.64 µM; with HT-29, 2790 nM; with HCT-116, 3.13 µM.

Consider `COC(=O)c1ccc(Nc2ccc(Oc3cc(OC)c(CNCCc4ccc(C(F)(F)F)cc4)c(OC)c3)cc2)cc1`, for which the IC50 came out at 7.34 µM in the test with HCT-8, 4.35 µM in the test on HCT-15, 1280 nM in the test on HT-29 and 5.98 µM in the test on HCT-116.

`COc1ccc(Nc2ccc(Oc3cc(OC)c(CNCCc4ccc(C(F)(F)F)cc4)c(OC)c3)cc2)cc1C`: the concentration for half-maximal inhibition (IC50) in the test on HCT-8 turned out to be 6.97 µM; with HCT-15, 7.09 µM; in the test with HT-29, 2340 nM; in the test on HCT-116, 5.25 µM.

As for `COc1ccc(CCNCc2c(OC)cc(Oc3ccc(Nc4ccccc4)cc3)cc2OC)cc1OC`, the IC50 with HCT-8 turned out to be 6.32 µM; in the test on HCT-15, 3.54 µM; in the test with HT-29 it was 1540 nM; in the test on HCT-116 it was 2.62 µM.

For the compound `COc1cc(Oc2ccc(Nc3ccc(C(=O)C(F)(F)F)cc3)cc2)cc(OC)c1CNCCc1ccc(C(F)(F)F)cc1`, the IC50 worked out at 7.86 µM with HCT-8, 1.89 µM with HCT-15, 1930 nM in the test on HT-29 and 2.43 µM in the test on HCT-116.

Turning to `COc1cc(Oc2ccc(Nc3ccc(C(F)(F)F)c(F)c3)cc2)cc(OC)c1CNCCc1ccc(C(F)(F)F)cc1`, the 50% inhibitory concentration (IC50) with HCT-8 came to 8.63 µM; with HCT-15, 2.34 µM; with HT-29, 1420 nM; in the test with HCT-116 it was 1.74 µM.

Regarding `CCCCc1ccc(Nc2ccc(Oc3cc(OC)c(CNCCc4ccc(C(F)(F)F)cc4)c(OC)c3)cc2)cc1`, the IC50 with HCT-8 amounted to 4.98 µM; in the test with HCT-15 it was 4.86 µM; in the test with HT-29 it was 1750 nM; with HCT-116, 3.1 µM.

Regarding `COc1cc(Oc2ccc(Nc3ccccc3)cc2)cc(OC)c1CNCCc1ccc(O)cc1`, the IC50 was determined as 6.78 µM in the test on HCT-8, 4.54 µM with HCT-15, 2750 nM in the test on HT-29 and 3.46 µM in the test with HCT-116.

On to `COc1cc(Oc2ccc(Nc3ccc(CCO)cc3)cc2)cc(OC)c1CNCCc1ccc(C(F)(F)F)cc1`, for which the IC50 turned out to be 3.58 µM with HCT-8, 3.21 µM in the test with HCT-15, 860 nM in the test with HT-29 and 2.05 µM with HCT-116.

Consider `COc1cc(Oc2ccc(Nc3ccc(C)cc3)cc2)cc(OC)c1CNCCc1ccc(C(F)(F)F)cc1`, for which the IC50 in the test with HCT-8 was 7.13 µM; with HCT-15 it was 5.61 µM; in the test on HT-29, 1110 nM; with HCT-116, 2.13 µM.

In the case of `COc1cc(Oc2ccc(Nc3ccccc3)cc2)cc(OC)c1CNCCc1ccc(C)cc1`, the IC50 in the test on HCT-8 worked out at 10.2 µM; with HCT-15, 5.88 µM; in the test on HT-29, 2830 nM; with HCT-116 it was 4.01 µM.

On to `COc1cc(Oc2ccc(Nc3ccc(Cc4ccccc4)cc3)cc2)cc(OC)c1CNCCc1ccc(C(F)(F)F)cc1`, for which the IC50 was 6.57 µM with HCT-8, 4.48 µM with HCT-15, 1130 nM with HT-29 and 5.21 µM in the test on HCT-116.

With `COc1cc(Oc2ccc(Nc3ccc(C#N)cc3)cc2)cc(OC)c1CNCCc1ccc(C(F)(F)F)cc1`, the IC50 came to 6.75 µM in the test with HCT-8, 2.43 µM in the test with HCT-15, 900 nM in the test with HT-29 and 2.38 µM with HCT-116.

For the compound `COc1cc(Oc2ccc(Nc3ccc(C(C)(C)C)cc3)cc2)cc(OC)c1CNCCc1ccc(C(F)(F)F)cc1`, the IC50 with HCT-8 amounted to 9.76 µM; with HCT-15, 5.76 µM; in the test with HT-29 it was 2180 nM; in the test on HCT-116, 6.48 µM.

Take `COc1cc(Oc2ccc(-c3ccc(Br)cc3)cc2)cc(OC)c1CNCCc1ccc(C(F)(F)F)cc1`: the IC50 amounted to 8.75 µM with HCT-8, 2.23 µM with HCT-15, 2570 nM with HT-29 and 2.71 µM with HCT-116.

As to `COc1cc(Oc2ccc(-c3ccc(Cl)cc3)cc2)cc(OC)c1CNCCc1ccc(C(F)(F)F)cc1`, the IC50 with HCT-8 is 6.09 µM; in the test with HCT-15 it was 3.23 µM; in the test with HT-29, 2060 nM; with HCT-116 it was 5.05 µM.

Turning to `COc1cc(Oc2ccc(Nc3ccc(-c4cnc5ccccc5c4)cc3)cc2)cc(OC)c1CNCCc1ccc(C(F)(F)F)cc1`, the IC50 with HCT-8 amounted to 6.77 µM; in the test on HCT-15 it was 1.58 µM; in the test on HT-29, 1990 nM; in the test on HCT-116 it was 3.12 µM.

Take `CCCc1ccc(Nc2ccc(Oc3cc(OC)c(CNCCc4ccc(C(F)(F)F)cc4)c(OC)c3)cc2)cc1`: the IC50 in the test with HCT-8 is 4.1 µM; in the test with HCT-15 it was 5.62 µM; with HT-29 it was 1600 nM; in the test with HCT-116 it was 3.23 µM.

With `COc1ccc(-c2ccc(Oc3cc(OC)c(CNCCc4ccc(C(F)(F)F)cc4)c(OC)c3)cc2)cc1`, the IC50 was determined as 6.45 µM in the test with HCT-8, 2.34 µM in the test on HCT-15, 2190 nM with HT-29 and 2.62 µM in the test on HCT-116.

For `COc1cc(Oc2ccc(Nc3ccc(C(F)(F)F)cc3)cc2)cc(OC)c1CNCCc1ccc(C(F)(F)F)cc1`, the IC50 in the test with HCT-8 amounted to 8.49 µM; in the test with HCT-15, 3.24 µM; in the test on HT-29, 1310 nM; with HCT-116 it was 6.46 µM.

For the compound `COc1ccc(Nc2ccc(Oc3cc(OC)c(CNCCc4ccc(C(F)(F)F)cc4)c(OC)c3)cc2)cc1OC`, the IC50 in the test with HCT-8 came out at 3.13 µM; with HCT-15, 3.35 µM; in the test with HT-29, 920 nM; with HCT-116, 1.35 µM.

For `COc1cc(Oc2ccc(Nc3ccc(F)cc3)cc2)cc(OC)c1CNCCc1ccc(C(F)(F)F)cc1`, the IC50 in the test on HCT-8 was 5.32 µM; with HCT-15 it was 6.23 µM; with HT-29 it was 1470 nM; in the test with HCT-116 it was 3.4 µM.

On to `COc1cc(Oc2ccc(Nc3ccccc3)cc2)cc(OC)c1CNCCc1ccccn1`, for which the IC50 with HCT-8 was determined as 11.2 µM; with HCT-15 it was 6.87 µM; in the test with HT-29, 2940 nM; in the test with HCT-116, 2.76 µM.

Regarding `CCc1ccc(Nc2ccc(Oc3cc(OC)c(CNCCc4ccc(C(F)(F)F)cc4)c(OC)c3)cc2)cc1`, the IC50 in the test with HCT-8 is 4.58 µM; in the test on HCT-15, 5.54 µM; with HT-29, 1510 nM; with HCT-116, 3.87 µM.

Regarding `COc1cc(Oc2ccc(Nc3ccc(CO)cc3)cc2)cc(OC)c1CNCCc1ccc(C(F)(F)F)cc1`, the IC50 worked out at 3.23 µM in the test on HCT-8, 3.33 µM with HCT-15, 1030 nM with HT-29 and 3.22 µM in the test with HCT-116.

`COc1cc(Oc2ccc(Nc3ccccc3)cc2)cc(OC)c1CNCCc1ccc(C(F)(F)F)cc1`: the IC50 in the test with HCT-8 came to 4.23 µM; with HCT-15, 2.78 µM; in the test on HT-29, 1050 nM; with HCT-116, 1.75 µM.

Consider `COc1cc(Oc2ccc(Nc3ccccc3)cc2)cc(OC)c1CNCCc1ccc(Br)cc1`, for which the IC50 with HCT-8 turned out to be 7.13 µM; in the test with HCT-15, 6.97 µM; with HT-29 it was 2380 nM; in the test with HCT-116, 2.96 µM.

With `COc1cc(Oc2ccc(Nc3ccc(C(F)(F)F)c(C(F)(F)F)c3)cc2)cc(OC)c1CNCCc1ccc(C(F)(F)F)cc1`, the IC50 with HCT-8 stood at 6.98 µM; in the test on HCT-15, 2.12 µM; with HT-29, 2350 nM; in the test with HCT-116, 1.64 µM.

With `COc1cc(Oc2ccc(-c3ccccc3)cc2)cc(OC)c1CNCCc1ccc(C(F)(F)F)cc1`, the IC50 in the test on HCT-8 was 6.98 µM; in the test with HCT-15, 1.55 µM; in the test with HT-29, 1410 nM; in the test on HCT-116, 2.8 µM.

Take `COc1cc(Oc2ccc(-c3ccc(C)cc3)cc2)cc(OC)c1CNCCc1ccc(C(F)(F)F)cc1`: the IC50 in the test on HCT-8 was found to be 8.95 µM; in the test on HCT-15, 2.32 µM; in the test with HT-29, 1350 nM; with HCT-116, 2.41 µM.
